{"source": "patent US12077503B2", "about": "“Substituted cyclic amides and their use as herbicides” (FMC CORPORATION, priority 2015, dated 2024)", "assay_type_in_all_cases": "in vivo", "key": {"[1]": {"test_system": "Galium (catchweed bedstraw, Galium aparine)", "assay": "Test A postemergence", "conditions": "Galium, post-emergence, 240 h, 125 g ai/ha, Postemergence; visual injury after approximately 10 d; 0 to 100 scale where 0 is no effect and 100 is complete control; read-out: Plant response rating, Galium", "in_short": "(§1)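 Seeded soil received test chemicals as a preemergence directed spray, and seedlings at one to two leaves, 2–10 cm tall, received them postemergence, in a non-phytotoxic, surfactant-containing solvent mixture. Pots were held in a greenhouse for approximately 10 d, then rated for injury from 0, no effect, to 100, complete control.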"}, "corn (Zea mays)": {"test_system": "corn (Zea mays)", "assay": "Test A postemergence", "conditions": "Zea mays, post-emergence, 240 h, 125 g ai/ha, Postemergence; visual injury after approximately 10 d; 0 to 100 scale where 0 is no effect and 100 is complete control", "in_short": "as §1"}, "Kochia (Kochia scoparia) [2]": {"test_system": "Kochia (Kochia scoparia)", "assay": "Test A postemergence", "conditions": "Bassia scoparia, post-emergence, 240 h, 125 g ai/ha, Postemergence; visual injury after approximately 10 d; 0 to 100 scale where 0 is no effect and 100 is complete control; read-out: Plant response rating, Kochia", "in_short": "as §1"}, "[3]": {"test_system": "ryegrass, Italian (Italian ryegrass, Lolium multiflorum)", "assay": "Test A postemergence", "conditions": "Lolium multiflorum, post-emergence, 240 h, 125 g ai/ha, Postemergence; visual injury after approximately 10 d; 0 to 100 scale where 0 is no effect and 100 is complete control; read-out: Plant response rating, Ryegrass, Italian", "in_short": "as §1"}, "[4]": {"test_system": "barnyardgrass (Echinochloa crus-galli)", "assay": "Test A postemergence", "conditions": "Echinochloa crus-galli, post-emergence, 240 h, 125 g ai/ha, Postemergence; visual injury after approximately 10 d; 0 to 100 scale where 0 is no effect and 100 is complete control; read-out: Plant response rating, Barnyardgrass", "in_short": "as §1"}, "[5]": {"test_system": "giant foxtail (Setaria faberii)", "assay": "Test A postemergence", "conditions": "Setaria faberi, post-emergence, 240 h, 125 g ai/ha, Postemergence; visual injury after approximately 10 d; 0 to 100 scale where 0 is no effect and 100 is complete control; read-out: Plant response rating, Foxtail, Giant", "in_short": "as §1"}, "[6]": {"test_system": "wheat (Triticum aestivum)", "assay": "Test A postemergence", "conditions": "Triticum aestivum, post-emergence, 240 h, 125 g ai/ha, Postemergence; visual injury after approximately 10 d; 0 to 100 scale where 0 is no effect and 100 is complete control; read-out: Plant response rating, Wheat", "in_short": "as §1"}, "[7]": {"test_system": "pigweed (Amaranthus retroflexus)", "assay": "Test A postemergence", "conditions": "Amaranthus retroflexus, post-emergence, 240 h, 125 g ai/ha, Postemergence; visual injury after approximately 10 d; 0 to 100 scale where 0 is no effect and 100 is complete control; read-out: Plant response rating, Pigweed", "in_short": "as §1"}, "[8]": {"test_system": "blackgrass (Alopecurus myosuroides)", "assay": "Test A postemergence", "conditions": "Alopecurus myosuroides, post-emergence, 240 h, 125 g ai/ha, Postemergence; visual injury after approximately 10 d; 0 to 100 scale where 0 is no effect and 100 is complete control; read-out: Plant response rating, Blackgrass", "in_short": "as §1"}, "[9]": {"test_system": "ragweed (common ragweed, Ambrosia elatior)", "assay": "Test A postemergence", "conditions": "Ambrosia artemisiifolia, post-emergence, 240 h, 125 g ai/ha, Postemergence; visual injury after approximately 10 d; 0 to 100 scale where 0 is no effect and 100 is complete control; read-out: Plant response rating, Ragweed", "in_short": "as §1"}, "Kochia (Kochia scoparia) [10]": {"test_system": "Kochia (Kochia scoparia)", "assay": "Test A preemergence", "conditions": "Bassia scoparia, pre-emergence, 240 h", "in_short": "as §1"}, "[11]": {"test_system": "ryegrass, Italian (Italian ryegrass, Lolium multiflorum)", "assay": "Test A preemergence", "conditions": "Lolium multiflorum, pre-emergence, 240 h", "in_short": "as §1"}, "[12]": {"test_system": "barnyardgrass (Echinochloa crus-galli)", "assay": "Test A preemergence", "conditions": "Echinochloa crus-galli, pre-emergence, 240 h", "in_short": "as §1"}, "[13]": {"test_system": "giant foxtail (Setaria faberii)", "assay": "Test A preemergence", "conditions": "Setaria faberi, pre-emergence, 240 h", "in_short": "as §1"}, "[14]": {"test_system": "pigweed (Amaranthus retroflexus)", "assay": "Test A preemergence", "conditions": "Amaranthus retroflexus, pre-emergence, 240 h"}, "[15]": {"test_system": "ragweed (common ragweed, Ambrosia elatior)", "assay": "Test A preemergence", "conditions": "Ambrosia artemisiifolia, pre-emergence, 240 h", "in_short": "as §1"}, "[16]": {"test_system": "sedge, umbrella (small-flower umbrella sedge, Cyperus difformis)", "assay": "Test B flooded paddy test", "conditions": "Cyperus difformis, Flood, 250 g ai/ha; scale of 0 to 100 where 0 is no effect and 100 is complete control; read-out: Sedge, Umbrella plant response rating", "in_short": "(§2)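 Plants at 2-leaf stage flooded to 3 cm above soil, with compounds applied directly to paddy water and that depth maintained. Plants kept in greenhouse 13–15 d. Visual rating versus controls on a 0 (no effect) to 100 (complete control) scale.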"}, "rice (Oryra sativa)": {"test_system": "rice (Oryra sativa)", "assay": "Test B flooded paddy test", "conditions": "Oryza sativa, Flood, 250 g ai/ha; scale of 0 to 100 where 0 is no effect and 100 is complete control; read-out: Rice plant response rating", "in_short": "as §2"}, "[17]": {"test_system": "barnyardgrass (Echinochloa crus-galli)", "assay": "Test B flooded paddy test", "conditions": "Echinochloa crus-galli, Flood, 250 g ai/ha; scale of 0 to 100 where 0 is no effect and 100 is complete control; read-out: Barnyardgrass plant response rating", "in_short": "as §2"}, "[18]": {"test_system": "ducksalad (Heteranthera limosa)", "assay": "Test B flooded paddy test", "conditions": "Heteranthera limosa, Flood, 250 g ai/ha; scale of 0 to 100 where 0 is no effect and 100 is complete control; read-out: Ducksalad plant response rating", "in_short": "as §2"}}}
{"smiles": "CN1C[C@H](c2csc(C(F)(F)F)c2)[C@@H](C(=O)Nc2ccccc2F)C1=O", "note": "[Compound 958]", "values": [{"measurement": "pest or weed control at 125 g/ha", "setting": "[1]", "result": 30, "unit": "%"}, {"measurement": "Corn plant response rating (crop injury, 0 = no effect, 100 = complete kill) at 125 g/ha", "setting": "corn (Zea mays)", "result": 0, "unit": "%"}, {"measurement": "pest or weed control at 125 g/ha", "setting": "Kochia (Kochia scoparia) [2]", "result": 0, "unit": "%"}, {"measurement": "pest or weed control at 125 g/ha", "setting": "[3]", "result": 0, "unit": "%"}, {"measurement": "pest or weed control at 125 g/ha", "setting": "[4]", "result": 70, "unit": "%"}, {"measurement": "pest or weed control at 125 g/ha", "setting": "[5]", "result": 90, "unit": "%"}, {"measurement": "plant injury at 125 g/ha", "setting": "[6]", "result": 0, "unit": "%"}, {"measurement": "pest or weed control at 125 g/ha", "setting": "[7]", "result": 0, "unit": "%"}, {"measurement": "pest or weed control at 125 g/ha", "setting": "[8]", "result": 30, "unit": "%"}, {"measurement": "pest or weed control at 125 g/ha", "setting": "[9]", "result": 0, "unit": "%"}, {"measurement": "pest or weed control at 125 g/ha", "setting": "Kochia (Kochia scoparia) [10]; 125 g ai/ha, Preemergence, visual injury rating after approximately 10 d, read-out: Kochia plant response rating (0 to 100 scale, 0 is no effect, 100 is complete control)", "result": 0, "unit": "%"}, {"measurement": "pest or weed control at 500 g/ha", "setting": "Kochia (Kochia scoparia) [10]; 500 g ai/ha, preemergence, visual injury rating about 10 d after treatment, 0 to 100 scale (0 no effect, 100 complete control), read-out: Kochia plant response rating", "result": 90, "unit": "%"}, {"measurement": "pest or weed control at 125 g/ha", "setting": "[11]; 125 g ai/ha, Preemergence, visual injury rating after approximately 10 d, read-out: Ryegrass, Italian plant response rating (0 to 100 scale, 0 is no effect, 100 is complete control)", "result": 0, "unit": "%"}, {"measurement": "pest or weed control at 500 g/ha", "setting": "[11]; 500 g ai/ha, preemergence, visual injury rating about 10 d after treatment, 0 to 100 scale (0 no effect, 100 complete control), read-out: Ryegrass, Italian plant response rating", "result": 20, "unit": "%"}, {"measurement": "pest or weed control at 125 g/ha", "setting": "[12]; 125 g ai/ha, Preemergence, visual injury rating after approximately 10 d, read-out: Barnyardgrass plant response rating (0 to 100 scale, 0 is no effect, 100 is complete control)", "result": 90, "unit": "%"}, {"measurement": "pest or weed control at 500 g/ha", "setting": "[12]; 500 g ai/ha, preemergence, visual injury rating about 10 d after treatment, 0 to 100 scale (0 no effect, 100 complete control), read-out: Barnyardgrass plant response rating", "result": 90, "unit": "%"}, {"measurement": "pest or weed control at 125 g/ha", "setting": "[13]; 125 g ai/ha, Preemergence, visual injury rating after approximately 10 d, read-out: Foxtail, Giant plant response rating (0 to 100 scale, 0 is no effect, 100 is complete control)", "result": 90, "unit": "%"}, {"measurement": "pest or weed control at 500 g/ha", "setting": "[13]; 500 g ai/ha, preemergence, visual injury rating about 10 d after treatment, 0 to 100 scale (0 no effect, 100 complete control), read-out: Foxtail, Giant plant response rating", "result": 90, "unit": "%"}, {"measurement": "pest or weed control at 125 g/ha", "setting": "[14]; 125 g ai/ha, Preemergence, visual injury rating after approximately 10 d, read-out: Pigweed plant response rating (0 to 100 scale, 0 is no effect, 100 is complete control)", "result": 0, "unit": "%"}, {"measurement": "pest or weed control at 500 g/ha", "setting": "[14]; 500 g ai/ha, preemergence, visual injury rating about 10 d after treatment, 0 to 100 scale (0 no effect, 100 complete control), read-out: Pigweed plant response rating", "result": 30, "unit": "%"}, {"measurement": "pest or weed control at 125 g/ha", "setting": "[15]; 125 g ai/ha, Preemergence, visual injury rating after approximately 10 d, read-out: Ragweed plant response rating (0 to 100 scale, 0 is no effect, 100 is complete control)", "result": 20, "unit": "%"}, {"measurement": "pest or weed control at 500 g/ha", "setting": "[15]; 500 g ai/ha, preemergence, visual injury rating about 10 d after treatment, 0 to 100 scale (0 no effect, 100 complete control), read-out: Ragweed plant response rating", "result": 60, "unit": "%"}, {"measurement": "pest or weed control at 250 g/ha", "setting": "[16]", "result": 0, "unit": "%"}, {"measurement": "pest or weed control at 250 g/ha", "setting": "rice (Oryra sativa)", "result": 15, "unit": "%"}, {"measurement": "pest or weed control at 250 g/ha", "setting": "[17]", "result": 55, "unit": "%"}, {"measurement": "pest or weed control at 250 g/ha", "setting": "[18]", "result": 100, "unit": "%"}]}
